Tests used:
protein kinase C = assay: PKC Activity Inhibition Assay; type: biochemical
Protocol: Fused pyrrolocarbazoles inhibited the activity of protein kinase C (Table VI). The protein kinase C assay has been disclosed (Murakata et al., U.S. Pat. No. 4,923,986; Kikkawa et al., J. Biol. Chem. 257:13341-13348 (1982)). The assay was performed with several concentrations of fused pyrrolocarbazoles. The concentration at which protein kinase C was 50% inhibited (IC50) was determined.

[1] = tested on: choline acetyltransferase (ChAT) activity in dissociated rat embryonic spinal cord culture; assay: Spinal Cord ChAT Activity Assay; type: cell-based; conditions: ChAT measured after 48 hours
[2] = tested on: ChAT activity of basal forebrain cultures; assay: Basal Forebrain ChAT Activity Assay; type: cell-based, rat; conditions: for activity at 0.25 µM: 250 nM
Protocol: Fused pyrrolocarbazoles were tested for the ability to increase ChAT activity of basal forebrain cultures.
Methods: The basal forebrain was dissected from rat embryos (day 17 or 18 embryos) and the cells were dissociated with a neutral protease (Dispase™, Collaborative Research). Neurons were plated at a density of 5×10^4 cells/well (1.5×10^5 cells/cm^2) in poly-1-ornithine and laminin coated plates. Cells were cultured in serum-free N2 medium containing 0.05% BSA at 37° C. in a humidified atmosphere, 5% CO2 /95% air. ChAT activity was assessed 5 days after plating by using the ChAT assay as described in Example III(A)(1).

[3] = tested on: lumbar motoneurons of chick embryos; assay: Inhibition of Motoneuron Death In Ovo; type: in vivo; conditions: for % of motoneurons rescued versus control / Number of motoneurons mean ± SD: E6-E9; for Number of motoneurons mean ± SD: one side of spinal cord
Protocol: The samples (50 ul) were applied to the vascularized chorioallantoic membrane through a window in the egg shell as previously described (Oppenheim et al., 1988). Embryos were sacrificed on E10 and spinal cords were removed, fixed in Carnoy's solution (10% acetic acid, 60% ethanol, 30% chloroform), embedded in paraffin, sectioned at 8 um, and stained with thionin as described previously (Oppenheim et al., 1988). Motoneurons (identified by morphology and position) were counted by an individual blind to the treatment conditions in every tenth section according to previously established criteria (Oppenheim et al., 1982, Oppenheim, 1986).

chick DRG neurons = assay: DRG Neuron Survival Assay (calcein AM); type: cell-based; conditions: 48 hours; for viability at 0.1 µM / viability at 0.25 µM / viability at 0.5 µM: Gallus gallus, DRG neuron, read-out: Neuronal Survival (% of Control); for viability at 0.25 µM: 250 nM; for viability at 0.5 µM: 500 nM
Protocol: Fused pyrrolocarbazoles promoted dorsal root ganglion (DRG) neuronal survival in cultures of chick DRG neurons. Cell survival was measured by uptake of calcein AM, an analog of the viable dye, fluorescein diacetate. Calcein is taken up by viable cells and cleaved intracellularly to fluorescent salts which are retained by intact membranes of viable cells. Microscopic counts of viable neurons correlate directly with relative fluorescence values obtained with the fluorimetric viability assay. This method thus provides a reliable and quantitive measurement of cell survival in the total cell population of a given culture (Bozyczko-Coyne et al., J. Neur. Meth. 50:205-216, 1993).
Methods: Dorsal root ganglia were dissected from embryonic age day 9 chick embryos and dissociated cells prepared by subsequent Dispase (neutral protease, Collaborative Research) dissociation. Neurons were seeded at low density (3×10^4 cells/cm^2) into 96 well poly-L-ornithine and laminin coated plates. Cells were cultured for 48 hours in serum-free N2 medium (Bottenstein and Sato, 1979) at 37° C. in a humidified atmosphere, 5% CO2 /95% air. Cell survival was assessed at 48 hours using the viable fluorimetric assay described above.

[4] = tested on: NT-3 induced ChAT activity of rat basal forebrain cultures; assay: Enhancement of Neurotrophin (NT-3) Activity Assay, ChAT activity in basal forebrain cultures; type: cell-based; conditions: for ChAT activity in the absence of NT-3: compound added alone to basal forebrain neurons, no NT-3; for ChAT activity in the presence of NT-3: with 100 ng/ml NT-3
Protocol: Fused pyrrolocarbazoles were tested for the ability to enhance the activity of the neurotrophin NT-3 in basal forebrain cultures. ChAT activity was assayed as a measure of cholinergic neuron function and survival. The concentration of NT-3 (100 ng/ml) used in these experiments increased ChAT activity over control cultures (untreated with NT-3 or a fused pyrrolocarbazole) by 140%.
Methods. Basal forebrain cultures were prepared from embryonic rats (embryonic day 17) and dissociated with the neutral protease Dispase™. Cells were plated at a density of 4×10^5 cells/cm^2 on poly-1-ornithine coated plastic tissue culture plates in a mixture of DMEM and F12 media (50/50 v/v GIBCO) supplemented with 5% horse serum and 0.5% fetal bovine serum. Cells were incubated at 37° C. in a humidified atmosphere of 5% CO2 /95% air for 5 days. ChAT activity was measured as described in Example III(A)(1).
Recombinant rat NT-3 was produced by using a recombinant baculovirus expression vector under the control of the polyhedron virus promoter (Fraser, In Vitro Cell. and Dev. Biol. 25:225-235 (1989)). The plasmid pXM-NT3 (Hallbook et al., Neuron 6:845-858 (1991), which contained the rat NT-3 cDNA clone, was provided by Dr. Ira Black (University of Medicine and Dentistry of New Jersey, Piscataway, N.J.). NT-3 cDNA was subcloned into the transfer vector pVL1392 (In Vitrogen Corp., San Diego, Calif.) for recombinant virus production. Recombinant baculovirus was produced as described in Meyer et al. (Meyer at al., J. Neurochem 62:825-833 (1994)).

trkA tyrosine kinase = trkA tyrosine kinase (Homo sapiens, UniProt P04629); assay: trkA Tyrosine Kinase Activity Inhibition Assay (ELISA); type: biochemical; conditions: 16 μM ATP, 37° C., 15 min; read-out: INHIBITION OF trkA KINASE IC50
trkA tyrosine kinase, sequence (P04629 33-796): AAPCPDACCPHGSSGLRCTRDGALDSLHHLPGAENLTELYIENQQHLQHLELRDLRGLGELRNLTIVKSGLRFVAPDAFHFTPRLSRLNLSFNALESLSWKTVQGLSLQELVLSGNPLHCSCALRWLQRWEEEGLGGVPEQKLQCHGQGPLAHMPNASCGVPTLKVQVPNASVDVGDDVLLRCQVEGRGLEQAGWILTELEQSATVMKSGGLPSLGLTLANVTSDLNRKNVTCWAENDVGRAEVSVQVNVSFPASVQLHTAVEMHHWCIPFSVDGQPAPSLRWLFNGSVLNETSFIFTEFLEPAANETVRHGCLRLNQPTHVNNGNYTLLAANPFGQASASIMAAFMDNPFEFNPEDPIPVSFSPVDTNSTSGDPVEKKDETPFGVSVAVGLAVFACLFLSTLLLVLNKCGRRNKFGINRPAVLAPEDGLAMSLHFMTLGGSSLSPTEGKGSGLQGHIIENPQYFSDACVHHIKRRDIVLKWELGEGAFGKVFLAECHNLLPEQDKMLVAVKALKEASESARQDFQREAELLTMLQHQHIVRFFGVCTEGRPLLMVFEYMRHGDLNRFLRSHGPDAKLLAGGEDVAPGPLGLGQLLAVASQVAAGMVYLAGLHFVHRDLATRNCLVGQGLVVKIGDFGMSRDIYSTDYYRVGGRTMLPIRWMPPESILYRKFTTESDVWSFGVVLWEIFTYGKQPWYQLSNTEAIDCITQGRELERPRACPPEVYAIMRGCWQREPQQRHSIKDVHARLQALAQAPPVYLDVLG

[5] = Rattus norvegicus, 120 h, read-out: ChAT Activity (% of Control)
[6] = Rattus norvegicus, 120 h, 100 nM, read-out: ChAT Activity (% of Control)

Molecule: C=CCn1c2ccccc2c2c3c(c4c(c21)Cc1ccccc1-4)C(=O)NC3 [Compound I-26, 13-Allyl-5H,6H,12H-indeno[2,3-a]pyrrolo[3,4-c]carbazole-7(7H)one]
- IC50 (protein kinase C): 300 nM
- Spinal Cord ChAT Activity, % of Control, untreated cultures [1]: 167 % of Control

Molecule: O=C1NCc2c1c1c(c3[nH]c4ccc(CCc5ccccn5)cc4c23)Cc2ccccc2-1 [Compound I-34]
- ChAT Activity (% of Control) ([2]; 100 nM): inactive
- ChAT Activity (% of Control) ([2]; 500 nM): inactive
- ChAT Activity (% of Control) ([2]; 1000 nM): inactive
- activity at 0.25 µM [2, 5]: 192%
- Spinal Cord ChAT Activity, % of Control, untreated cultures [1]: 254 % of Control
- % of motoneurons rescued versus control ([3]; 0.015 ug/egg daily): 11%
- Number of motoneurons mean ± SD ([3]; 0.015 ug/egg daily): 10480 ± 585
- % of motoneurons rescued versus control ([3]; 0.15 ug/egg daily): 7%
- Number of motoneurons mean ± SD ([3]; 0.15 ug/egg daily): 10135 ± 354
- % of motoneurons rescued versus control ([3]; 0.3 ug/egg daily): 23%
- Number of motoneurons mean ± SD ([3]; 0.3 ug/egg daily): 11593 ± 654
- % of motoneurons rescued versus control ([3]; 0.6 ug/egg daily): 27%
- Number of motoneurons mean ± SD ([3]; 0.6 ug/egg daily): 11976 ± 1106
- increase in motoneuron survival in treated vs. control embryos, maximal effect ([3]; 0.6 ug/egg, vehicle-treated control): 27%
- number of surviving lumbar motoneurons / naturally occurring motoneuron death (in words) ([3]; daily application to chorioallantoic membrane, E6 to E9): dose-dependent increase in the number of surviving lumbar motoneurons
- dose at which the maximal effect was achieved ([3]; daily dose): 0.6 ug/egg
- viability at 0.1 µM (chick DRG neurons; 100 nM): 159%
- viability at 0.25 µM (chick DRG neurons): 203%
- viability at 0.5 µM (chick DRG neurons): 207%

Molecule: O=C1NC(=O)c2c1c1c(c3[nH]c4ccc(Br)cc4c23)Cc2ccccc2-1 [Compound I-6, 3-Bromo-6H, 12H, 13H-indeno[2,3-c]pyrrolo[3,4-c]carbazole-5,7(5H, 7H),-dione]
- IC50 (protein kinase C): 1000 nM
- Spinal Cord ChAT Activity, % of Control, untreated cultures [1]: 209 % of Control
- ChAT activity in the absence of NT-3 [4]: no effect on ChAT activity
- ChAT activity in the presence of NT-3 [4]: enhanced ChAT activity

Molecule: O=C1NCc2c3c(c4[nH]c5ccc(F)cc5c4c21)Cc1ccccc1-3 [Compound I-23, 3-Fluoro-6H, 7H, 12H, 13H -indeno[2,3-a]pyrrolo[3,4-c]carbazole-5(5H)one]
- IC50 (protein kinase C): 60 nM
- Spinal Cord ChAT Activity, % of Control, untreated cultures [1]: 208 % of Control
- IC50 (trkA tyrosine kinase): 70.6 nM
- Neuronal Survival (% of Control) (chick DRG neurons; 100 nM): inactive
- viability at 0.25 µM (chick DRG neurons): 128%
- viability at 0.5 µM (chick DRG neurons): 135%

Molecule: O=C1NCc2c1c1c(c3[nH]c4ccc(F)cc4c23)Cc2ccccc2-1 [Compound I-12, 3-Fluoro-5H, 6H, 12H, 13H-indeno[2,3-a]pyrrolo[3,4-c]carbazole-7(7H)one]
- activity at 0.1 µM [2, 6]: 279%
- activity at 0.25 µM [2, 5]: 389%
- IC50 (protein kinase C): 85 nM
- Spinal Cord ChAT Activity, % of Control, untreated cultures [1]: 173 % of Control
- IC50 (trkA tyrosine kinase): 26.7 nM
- viability at 0.1 µM (chick DRG neurons; 100 nM): 126%
- viability at 0.25 µM (chick DRG neurons): 165%
- viability at 0.5 µM (chick DRG neurons): 178%

Molecule: O=C1NCc2c1c1c(c3[nH]c4ccccc4c23)CCc2ccccc2-1 [Compound I-17, 12,13-Dihydro-5H, 6H, 14H-naphthy[3,4-a]pyrrolo[3,4-c]carbazole-7(7H)one]
- IC50 (protein kinase C): 1000 nM
- Spinal Cord ChAT Activity, % of Control, untreated cultures [1]: 197 % of Control
- IC50 (trkA tyrosine kinase): 66 nM

Molecule: O=C1NC(=O)c2c1c1c(c3[nH]c4cc(Cl)ccc4c23)Cc2ccccc2-1 [Compound Ia-1, 2-Chloro-6H , 12H, 13H-indeno[2,3a]pyrrolo[3,4-c]carbazole-5,7(5H, 7H)-dione]
- Spinal Cord ChAT Activity, % of Control, untreated cultures [1]: 139 % of Control
- ChAT activity in the absence of NT-3 [4]: no effect on ChAT activity
- ChAT activity in the presence of NT-3 [4]: enhanced ChAT activity

Molecule: O=C1NCc2c3c(c4[nH]c5ccccc5c4c21)CCc1ccccc1-3 [Compound I-16, 12,13-dihydro-6H, 7H, 14H-naphthyl[3,4-a]pyrrolo[3,4-c]carbazole-5(5H)one]
- IC50 (protein kinase C): 35 nM
- Spinal Cord ChAT Activity, % of Control, untreated cultures [1]: 142 % of Control

Molecule: C#Cc1ccc2[nH]c3c4c(c5c(c3c2c1)CNC5=O)-c1ccccc1C4 [Compound I-36, 3-Ethynyl-5H,6H,12H,13H-indeno[2,3-a]pyrrolo[3,4-c]carbazole-7(7H)one]
- ChAT Activity (% of Control) ([2]; 1000 nM): inactive
- activity at 0.1 µM [2, 6]: 122%
- activity at 0.25 µM [2, 5]: 131%
- activity at 0.5 µM ([2]; Rattus norvegicus, 120 h, 500 nM, read-out: ChAT Activity (% of Control)): 123%
- Spinal Cord ChAT Activity, % of Control, untreated cultures [1]: 167 % of Control

Molecule: O=C1NCc2c1c1c(c3[nH]c4ccc(F)cc4c23)CCc2ccccc2-1 [Compound I-22, 12,13-Dihydro-3-fluoro-5H, 6H, 14H-naphthyl[3,4-a]pyrrolo[3,4-c]carbazole-7(7H)one]
- IC50 (protein kinase C): 250 nM
- Spinal Cord ChAT Activity, % of Control, untreated cultures [1]: 143 % of Control

Molecule: 2-Chloro-6H, 7H, 12H, 13H-indeno[2,3-a]pyrrolo[3,4-c]carbazole-5(5H)one and 2-chloro-5H, 6H, 12H, 13H-indeno[2,3-a]pyrrolo[3,4-c]carbazole-7(7H)one [Compound Ia-2]
- Spinal Cord ChAT Activity, % of Control, untreated cultures [1]: 161 % of Control

B1: NT-3: Recombinant rat NT-3 produced by using a recombinant baculovirus expression vector (protein, UniProt P18280 140-258, looked up)
Neurotrophin-3: YAEHKSHRGEYSVCDSESLWVTDKSSAIDIRGHQVTVLGEIKTGNSPVKQYFYETRCKEARPVKNGCRGIDDKHWNSQCKTSQTYVRALTSENNKLVGWRWIRIDTSCVCALSRKIGRT
modifications: baculovirus-expressed
notes: Recombinant rat NT-3 produced by using a recombinant baculovirus expression vector
- increase of ChAT activity over control cultures ([4]; NT-3 100 ng/ml, control untreated with NT-3 or fused pyrrolocarbazole): 140%
